Values of other authors as cited in paper PMC5752104 (Bioorganic & medicinal chemistry, 2017).

Columns and labels:
GPR55 = GPR55 (Homo sapiens, UniProt Q9Y2T6)
Sequence of GPR55 (Q9Y2T6 whole entry): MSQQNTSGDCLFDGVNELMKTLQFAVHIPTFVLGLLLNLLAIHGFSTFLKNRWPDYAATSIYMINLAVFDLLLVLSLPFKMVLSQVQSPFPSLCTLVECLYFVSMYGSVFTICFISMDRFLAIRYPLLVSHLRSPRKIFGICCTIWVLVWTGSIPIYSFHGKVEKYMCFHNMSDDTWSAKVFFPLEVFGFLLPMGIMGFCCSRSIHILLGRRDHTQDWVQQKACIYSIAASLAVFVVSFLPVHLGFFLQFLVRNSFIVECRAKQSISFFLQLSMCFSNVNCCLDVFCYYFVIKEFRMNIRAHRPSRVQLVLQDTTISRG
Sequence of GPR55 (P32121 whole entry partner): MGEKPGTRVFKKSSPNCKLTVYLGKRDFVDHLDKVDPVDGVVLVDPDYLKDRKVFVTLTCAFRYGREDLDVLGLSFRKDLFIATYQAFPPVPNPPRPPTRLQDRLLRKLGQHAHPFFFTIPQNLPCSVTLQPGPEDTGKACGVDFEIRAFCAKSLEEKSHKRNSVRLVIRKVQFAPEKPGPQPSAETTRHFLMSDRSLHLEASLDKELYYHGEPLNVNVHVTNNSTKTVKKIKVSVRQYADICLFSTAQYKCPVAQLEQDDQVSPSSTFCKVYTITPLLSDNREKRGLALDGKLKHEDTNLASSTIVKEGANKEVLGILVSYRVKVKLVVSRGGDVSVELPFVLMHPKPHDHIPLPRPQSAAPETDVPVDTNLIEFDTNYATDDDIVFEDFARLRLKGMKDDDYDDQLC

SMILES	effect at GPR55 (GPR55)	activity at CB1 (CB1)	activity at CB2 (CB2)	activity at GPR35 (GPR35)
CCCCCCC(C)(C)c1ccc([C@@H]2C[C@H](O)CC[C@H]2CCCO)c(O)c1 [CP55940]	acts as an antagonist			
Cc1c(C(=O)NN2CCCCC2)nn(-c2ccc(Cl)cc2Cl)c1-c1ccc(I)cc1 [AM251]	strongly activates GPR55			
COc1ccccc1/C=C/C(=O)NC(=S)Nc1ccc(S(=O)(=O)N(C)c2ccccc2)cc1 [6fv, (E)-3-(2-Methoxyphenyl)-N-((4-(N-methyl-N-phenylsulfamoyl)phenyl)carbamothioyl)acrylamide]		no activity	no activity	no activity
